From patent US20250163116A1, “NEW METHOD TO TREAT INFECTIOUS DISEASES” (INSERM (INSTITUT NATIONAL DE LA SANTÉ ET DE LA RECHERCHE …, priority 2022, published 2025)

system: HDMECs infected with Nm 2C4.3; test: Integrity of HDMEC monolayers infected with N. meningitidis (VE-cadherin at intercellular junctions, immunofluorescence); format: cell-based, human; conditions: 1 μg/mL added 30 min after initiation of Nm infection, 2 h 30
Experimental: FIG. 1. Exogenous ANGPTL4 exerts protective effects on dermal microvascular endothelial cells infected by N. meningitidis. A. HDMECs were infected with Nm 2C4.3 for 30 min and treated with 1 μg/mL of recombinant human ANGPTL4 for 2 h 30. Cells were fixed and stained for cellular actin, VE-cadherin and DAPI and analyzed by fluorescent microscopy. Quantifications of VE-cadherin enrichment at intercellular junctions and of intercellular spaces area were performed on 30 fields with Image J software. Kruskal-Wallis test ** P<0.001; P<0.0001. B. HDMEC were either uninfected or infected with N. meningitidis 2C4.3 for 30 min and treated with 1 μg mL−1 of recombinant human ANGPTL4, its N-terminal portion (nANGPTL4) or its C-terminal portion (cANGPTL4) for 2 h 30. Caspase-3/7 reagent was added to detect apoptosis in real time over 9 h using the IncuCyte® Live-Cell Analysis System
FIG. 2: Vascular protection is conferred by the N-terminal part of ANGPTL4. A, Schematic representation of ANGPTL4 structure. ANGPTL4 contains a N-terminal portion (nANGPTL4, aa 26-164) linked to a C-terminal portion (cANGPTL4, aa 164-406) by a cleavable linker. nANGPTL4 contains a highly conserved lipoprotein lipase (LPL) binding domain (aa 44-55), two cysteines on position 76 and 80 involved in protein oligomerization and a coiled-coil domain (aa 100-143). The C-terminal portion encodes a fibrinogen-like domain. B, HDMECs were infected with Nm 2C4.3 for 30 min and treated with 1 μg/mL of recombinant human ANGPTL4, nANGPTL4 or cANGPTL4 for 2 h 30. Cells were fixed and stained for cellular actin, VE-cadherin and DAPI and analyzed by fluorescent microscopy. B. Quantifications of VE-cadherin enrichment at intercellular junctions and of intercellular spaces area were performed on 30 fields with Image J software. Kruskal-Wallis test ** P<0.001, *** P<0.0001 of four independent experiments performed in triplicate.
FIG. 3: Vascular protection is conferred by a novel binding motif (aa 66-80) present in the N-terminal part of ANGPTL4. A, the indicated peptides were derived from nANGPTL4. B, HDMECs were infected with Nm 2C4.3 for 30 min and treated with 1 μg/mL of each peptides. Quantifications of VE-cadherin enrichment at intercellular junctions was performed on 30 fields with Image J software.
FIG. 4: Vascular protection is conferred by interaction of nANGPTL4 with Syndecan-4. A, HDMECs were infected with Nm 2C4.3 for 30 min and treated with 1 μg/mL of recombinant human ANGPTL4, nANGPTL4 or cANGPTL4 in the absence or in the presence of anti-SDC4 antibody for 2 h 30. Cells were fixed and stained for cellular actin, VE-cadherin and DAPI and analysed by fluorescent microscopy. Quantifications of VE-cadherin enrichment at intercellular junctions and of intercellular spaces area were performed on 30 fields with Image J software. Kruskal-Wallis test ** P<0.001, **** P<0.00001, ns1 P=0.2172; ns2 P>0.999 of four independent experiments performed in triplicate. B, HDMECs were transfected with small interfering RNA (siRNA) against SDC4 or non-targeting siRNA controls for 48 h, infected with Nm 2C4.3 for 30 min and treated with 1 μg/mL of recombinant human ANGPTL4, for 2 h 30. Quantifications of VE-cadherin enrichment at intercellular junctions and of intercellular spaces area were performed on 30 fields with Image J software. Kruskal-Wallis test ** P<0.001, *** P<0.0001, of two independent experiments performed in triplicate.
The day of infection, a suspension of the bacteria from an overnight culture on GCB agar plate was adjusted to OD600=0.05 and incubated for 2 h at 37° C. in a pre-warmed cell culture medium. Cells were infected with bacteria at a multiplicity of infection (MOI) of 100 bacteria per cell (OD=0.1) for 30 minutes, washed twice to remove non-adherent bacteria and infection was allowed to proceed for various periods of time. Cells were then washed and fixed in 4% paraformaldehyde for immunofluorescence analysis. […]

Row | Molecule | protective effect on monolayer integrity (adherens junctions, cell detachment) of infected HDMECs
1 | LSALERRLSA (Peptide P8) | no effect
2 | LSALERRLSACGS [Peptide P12] | inhibits infection-induced damages
3 | PEVLHSLQTQLKAQNSRIQQLFHKVAQQQRHLEKQHLRIQHLQSQFGLLD (Peptide P2) | no significant effect
4 | QLSALERRLSACGSAC (Peptide P6) | completely inhibited infection-induced damages
5 | REHAERTRSQLSALERRL (Peptide P5) | no effect
6 | REHAERTRSQLSALERRLSACGSACQGT (Peptide P4) | as efficient as P1 in providing protection
7 | RTRSQLSALERRLSA (Peptide P7) | no effect
8 | SALERRLSACGSAC [Peptide P13] | inhibits infection-induced damages
9 | WDEMNVLAHGLLQLGQGL (Peptide P3) | no protective effects
10 | WDEMNVLAHGLLQLGQGLREHAERTRSQLSALERRLSAAGSAAQGT (Peptide P1 C76A, C80A) [Peptide P1 C76A/C80A] | efficiently provided cytoprotection to infection-induced damages
11 | rhANGPTL3: recombinant human ANGPTL3 (3829-AN) from R&D Systems (protein, UniProt Q9Y5C1 17-460, looked up) Angiopoietin-related protein 3: SRIDQDNSSFDSLSPEPKSRFAMLDDVKILANGLLQLGHGLKDFVHKTKGQINDIFQKLNIFDQSFYDLSLQTSEIKEEEKELRRTTYKLQVKNEEVKNMSLELNSKLESLLEEKILLQQKVKYLEEQLTNLIQNQPETPEHPEVTSLKTFVEKQDNSIKDLLQTVEDQYKQLNQQHSQIKEIENQLRRTSIQEPTEISLSSKPRAPRTTPFLQLNEIRNVKHDGIPAECTTIYNRGEHTSGMYAIRPSNSQVFHVYCDVISGSPWTLIQHRIDGSQNFNETWENYKYGFGRLDGEFWLGLEKIYSIVKQSNYVLRIELEDWKDNKHYIEYSFYLGNHETNYTLHLVAITGNVPNAIPENKDLVFSTWDHKAKGHFNCPEGYSGGWWWHDECGENNLNGKYNKPRAKSKPERRRGLSWKSQNGRLYSIKSTKMLIHPTDSESFE | no protective effect
12 | rhANGPTL8: recombinant human ANGPTL8 (9983-AN) from R&D Systems (protein, UniProt Q6UXH0 22-198, looked up) Angiopoietin-like protein 8: APMGGPELAQHEELTLLFHGTLQLGQALNGVYRTTEGRLTKARNSLGLYGRTIELLGQEVSRGRDAAQELRASLLETQMEEDILQLQAEATAEVLGEVAQAQKVLRDSVQRLEVQLRSAWLGPAYREFEVLKAHADKQSHILWALTGHVQRQRREMVAQQHRLRQIQERLHTAALPA | no protective effect

system: SCID mice grafted with human skin infected with Nm 2C4.3; test: Vascular lesions in SCID mice grafted with human skin infected with N. meningitidis (4 h); format: in vivo; conditions: data not shown
Experimental: FIG. 7: ANGPTL4 reduces signs of thrombosis, vascular injury and inflammation. A-D, SCID mice grafted with human skins were infected intravenously with Nm 2C4.3 wild-type strain (5×10^6 bacteria) or left uninfected. A period of 30 min or 2 h after bacterial challenge, mice received 1 μg of recombinant human ANGPTL4, nANGPTL4 or cANGPTL4 intravenously or the vehicle as a control. Mice were killed at 4 h post-challenge. This experiment was performed twice with n=3 or 4 mice per group, using skin from two different donors. A, A schematic representation of the protocols used in vivo. B, Control bacteraemia 4 h post-infection (mean±s.e.m.). C, Bacterial colonization within the skin grafts as assessed by immunofluorescence analysis was quantified using ImageJ software as the ratio between bacterial surface colonization and the lumen surface of the vessels. A total of 30-50 vessels per mouse were analysed. Error bars show mean±s.e.m. D, Thrombus formation within the skin grafts was assessed by immunofluorescence analysis and quantified using ImageJ as the ratio between thrombus surfaces and the lumen surface of the vessels. A total of 30-50 vessels per mouse were analysed. Error bars show mean±s.e.m.; *** P<0.0001; ns P=0.0541 two-tailed Student's t-test.
Six-week-old CB17/Icr-Prkdcscid female mice were obtained from Janvier Labs. Human skin tissues were obtained from adult patients undergoing plastic surgery in the Service de Chirurgie Plastique et Reconstructive of the Groupe Hospitalier Saint-Joseph. […] Experimental procedures were performed as previously described in accordance with the guidelines of the Institut National de la Santé et de la Recherche Médicale and conformed to the European ethical legislation (Directive 2010/63/EU). The experimental protocol was approved by the Animal Experimentation Ethics Committee of the Université Paris Descartes (consent forms CEEA34.O.J.L.039.12 and 2018012515596498). […]. A skin flap was created and a full thickness human skin graft was placed onto the wound bed. The transplants were held in place with 6-0 non-absorbable monofilament suture materials, and the flap was then sutured above the transplant. Grafted mice were infected 4-6 weeks after human skin transplantation. N. meningitidis was grown overnight at 37° C. on GCB agar plates prepared without iron and supplemented with 15 μM deferoxamine (Desferal, Novartis). Bacterial colonies were harvested and cultured in RPMI media with 1% BSA medium and 0.06 μM deferoxamine with gentle agitation to reach the exponential phase of growth. Bacteria were then resuspended in physiological saline solution. Mice were infected intravenously with 200 μl (5×10^6 bacteria) of this bacterial suspension. A 10 mg dose of human holotransferrin (R&D Systems) was administered intraperitoneally just before infection. Mice were killed at 4 h after infection. Human skin grafts were carefully collected using a sterile cutter. The tissue was washed in PBS and fixed overnight at 4° C. in 4% paraformaldehyde in phosphate buffer. After washing in phosphate buffer, the specimens were embedded in OCT medium and then frozen at −80° C. Sections of the dermis (7 μm thick) were immobilized on Superfrost Plus microscope slides and subjected to immunofluorescence analysis. Sections were incubated with the primary antibodies for 1 h in PBS/3% BSA then DAPI was added to Alexa-conjugated secondary antibodies for 1 h. After additional washing, coverslips were mounted in glycergel (Dako) and were further analysed using a slide scanner (Lamina, Perkin Elmer). Analysis of the images was performed using ImageJ software (NIH). […]

Row | Molecule | protective effects on vascular alteration, thrombosis or the release of inflammatory markers
13 | rhANGPTL3: recombinant human ANGPTL3 (3829-AN) from R&D Systems (protein, UniProt Q9Y5C1 17-460, looked up) Angiopoietin-related protein 3: SRIDQDNSSFDSLSPEPKSRFAMLDDVKILANGLLQLGHGLKDFVHKTKGQINDIFQKLNIFDQSFYDLSLQTSEIKEEEKELRRTTYKLQVKNEEVKNMSLELNSKLESLLEEKILLQQKVKYLEEQLTNLIQNQPETPEHPEVTSLKTFVEKQDNSIKDLLQTVEDQYKQLNQQHSQIKEIENQLRRTSIQEPTEISLSSKPRAPRTTPFLQLNEIRNVKHDGIPAECTTIYNRGEHTSGMYAIRPSNSQVFHVYCDVISGSPWTLIQHRIDGSQNFNETWENYKYGFGRLDGEFWLGLEKIYSIVKQSNYVLRIELEDWKDNKHYIEYSFYLGNHETNYTLHLVAITGNVPNAIPENKDLVFSTWDHKAKGHFNCPEGYSGGWWWHDECGENNLNGKYNKPRAKSKPERRRGLSWKSQNGRLYSIKSTKMLIHPTDSESFE | no protective effects
14 | rhANGPTL8: recombinant human ANGPTL8 (9983-AN) from R&D Systems (protein, UniProt Q6UXH0 22-198, looked up) Angiopoietin-like protein 8: APMGGPELAQHEELTLLFHGTLQLGQALNGVYRTTEGRLTKARNSLGLYGRTIELLGQEVSRGRDAAQELRASLLETQMEEDILQLQAEATAEVLGEVAQAQKVLRDSVQRLEVQLRSAWLGPAYREFEVLKAHADKQSHILWALTGHVQRQRREMVAQQHRLRQIQERLHTAALPA | no protective effects
